This is an account of results in patent US10150760B2, “Compounds for use in preparing heterocyclic triazole agonists of the APJ receptor” (AMGEN INC., priority 2016, dated 2018).

Sequence of human APJ receptor (P35414 whole entry): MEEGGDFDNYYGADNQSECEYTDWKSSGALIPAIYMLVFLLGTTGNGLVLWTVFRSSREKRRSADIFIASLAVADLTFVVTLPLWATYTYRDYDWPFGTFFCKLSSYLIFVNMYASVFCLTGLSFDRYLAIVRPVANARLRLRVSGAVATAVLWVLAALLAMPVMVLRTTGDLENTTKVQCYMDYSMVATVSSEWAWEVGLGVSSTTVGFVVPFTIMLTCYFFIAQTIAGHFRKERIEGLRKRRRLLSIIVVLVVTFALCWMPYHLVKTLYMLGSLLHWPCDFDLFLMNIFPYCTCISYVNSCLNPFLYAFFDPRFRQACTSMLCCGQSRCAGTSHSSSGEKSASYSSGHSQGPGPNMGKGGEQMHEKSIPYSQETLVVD

The test deals with human APJ receptor (Homo sapiens (Human), UniProt P35414). The test can be described thus: [35S]GTPγS binding assay on membranes from CHO cells stably expressing human APJ receptor. The format is biochemical. The settings on record: read-out: Activity hAPJ SPA EC50 IP. The essentials:
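Agonist-driven [35S]GTPγS (0.2 nM) binding was measured over 90 min at room temperature on human APJ-expressing CHO membranes with bead capture, in buffer containing 3 μM GDP, 200 mM NaCl and 5 mM MgCl2 (pH 7.5). Excess unlabelled GTPγS (100 μM) gave nonspecific signal; EC50 from non-linear fits.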
On the technique in general: GTPγS resists hydrolysis and so accumulates on activated G proteins.
The term EC50 denotes the concentration that produces a half-maximal response. Turning to `COc1cccc(OC)c1-n1c(NS(=O)(=O)[C@@H](C)[C@H](OC)c2ncc(Cl)cn2)nnc1[C@H]1CCC(C)(C)O1` (single isomer, unassigned) [Example 109.0, (1R,2S)-1-(5-chloropyrimidin-2-yl)-N-(4-(2,6-dimethoxyphenyl)-5-((S)-5,5-dimethyltetrahydrofuran-2-yl)-4H-1,2,4-triazol-3-yl)-1-methoxypropane-2-sulfonamide or (1R,2S)-1-(5-chloropyrimidin-2-yl)-N-(4-(2,6-dimethoxyphenyl)-5-((R)-5,5-dimethyltetrahydrofuran-2-yl)-4H-1,2,4-triazol-3-yl)-1-methoxypropane-2-sulfonamide], the EC50 came out at 0.16 nM.

For the compound `CO[C@H](c1ncc(Cl)cn1)[C@H](C)S(=O)(=O)Nc1nnc([C@H]2CCCO2)n1C1(C)CC1` (single isomer, unassigned) [Example 110.0, (1R,2S)-1-(5-chloropyrimidin-2-yl)-1-methoxy-N-(4-(1-methylcyclopropyl)-5-((S)-tetrahydrofuran-2-yl)-4H-1,2,4-triazol-3-yl)propane-2-sulfonamide or (1R,2S)-1-(5-chloropyrimidin-2-yl)-1-methoxy-N-(4-(1-methylcyclopropyl)-5-((R)-tetrahydrofuran-2-yl)-4H-1,2,4-triazol-3-yl)propane-2-sulfonamide], the EC50 amounted to 30 nM.

Consider `CO[C@H](c1ncc(Cl)cn1)[C@H](C)S(=O)(=O)Nc1nnc([C@H]2CCCO2)n1C1(C)CC1` (single isomer, unassigned) [Example 111.0, (1R,2S)-1-(5-chloropyrimidin-2-yl)-1-methoxy-N-(4-(1-methylcyclopropyl)-5-((S)-tetrahydrofuran-2-yl)-4H-1,2,4-triazol-3-yl)propane-2-sulfonamide or (1R,2S)-1-(5-chloropyrimidin-2-yl)-1-methoxy-N-(4-(1-methylcyclopropyl)-5-((R)-tetrahydrofuran-2-yl)-4H-1,2,4-triazol-3-yl)propane-2-sulfonamide], for which the EC50 amounted to 240 nM.

With `CO[C@H](c1ncc(Cl)cn1)[C@H](C)S(=O)(=O)Nc1nnc([C@H]2CCCCO2)n1C1(C)CC1` (single isomer, unassigned) [Example 113.0, (1R,2S)-1-(5-chloropyrimidin-2-yl)-1-methoxy-N-(4-(1-methylcyclopropyl)-5-((S)-tetrahydro-2H-pyran-2-yl)-4H-1,2,4-triazol-3-yl)propane-2-sulfonamide or (1R,2S)-1-(5-chloropyrimidin-2-yl)-1-methoxy-N-(4-(1-methylcyclopropyl)-5-((R)-tetrahydro-2H-pyran-2-yl)-4H-1,2,4-triazol-3-yl)propane-2-sulfonamide], the EC50 worked out at 260 nM.

On to `COc1cccc(OC)c1-n1c(NS(=O)(=O)[C@@H](C)[C@H](OC)c2ncc(Cl)cn2)nnc1[C@H]1CCO[C@@H]1C` (single isomer, unassigned) [Example 114.0, (1R,2S)-1-(5-chloropyrimidin-2-yl)-N-(4-(2,6-dimethoxyphenyl)-5-((2R,3R)-2-methyltetrahydrofuran-3-yl)-4H-1,2,4-triazol-3-yl)-1-methoxypropane-2-sulfonamide or (1R,2S)-1-(5-chloropyrimidin-2-yl)-N-(4-(2,6-dimethoxyphenyl)-5-((2S,3S)-2-methyltetrahydrofuran-3-yl)-4H-1,2,4-triazol-3-yl)-1-methoxypropane-2-sulfonamide], for which the EC50 was 110 nM.

For `COc1cccc(OC)c1-n1c(NS(=O)(=O)[C@@H](C)[C@H](OC)c2ncc(Cl)cn2)nnc1[C@H]1CCO[C@@H]1C` (single isomer, unassigned) [Example 115.0, (1R,2S)-1-(5-chloropyrimidin-2-yl)-N-(4-(2,6-dimethoxyphenyl)-5-((2R,3S)-2-methyltetrahydrofuran-3-yl)-4H-1,2,4-triazol-3-yl)-1-methoxypropane-2-sulfonamide or (1R,2S)-1-(5-chloropyrimidin-2-yl)-N-(4-(2,6-dimethoxyphenyl)-5-((2S,3R)-2-methyltetrahydrofuran-3-yl)-4H-1,2,4-triazol-3-yl)-1-methoxypropane-2-sulfonamide], the EC50 amounted to 210 nM.

For the compound `COc1cccc(OC)c1-n1c(NS(=O)(=O)[C@@H](C)[C@H](OC)c2ncc(Cl)cn2)nnc1[C@H]1CCO[C@H]1C` (single isomer, unassigned) [Example 116.0, (1R,2S)-1-(5-chloropyrimidin-2-yl)-N-(4-(2,6-dimethoxyphenyl)-5-((2R,3S)-2-methyltetrahydrofuran-3-yl)-4H-1,2,4-triazol-3-yl)-1-methoxypropane-2-sulfonamide or (1R,2S)-1-(5-chloropyrimidin-2-yl)-N-(4-(2,6-dimethoxyphenyl)-5-((2S,3R)-2-methyltetrahydrofuran-3-yl)-4H-1,2,4-triazol-3-yl)-1-methoxypropane-2-sulfonamide], the EC50 came out at 190 nM.

In the case of `COc1cccc(OC)c1-n1c(NS(=O)(=O)[C@@H](C)[C@H](C)c2ncc(Cl)cn2)nnc1[C@H]1CCO[C@@H]1C` (single isomer, unassigned) [Example 117.0, (2S,3R)-3-(5-chloropyrimidin-2-yl)-N-(4-(2,6-dimethoxyphenyl)-5-((2R,3R)-2-methyltetrahydrofuran-3-yl)-4H-1,2,4-triazol-3-yl)butane-2-sulfonamide or (2S,3R)-3-(5-chloropyrimidin-2-yl)-N-(4-(2,6-dimethoxyphenyl)-5-((2S,3S)-2-methyltetrahydrofuran-3-yl)-4H-1,2,4-triazol-3-yl)butane-2-sulfonamide], the EC50 is 49 nM.

With `COc1cccc(OC)c1-n1c(NS(=O)(=O)[C@@H](C)[C@H](C)c2ncc(Cl)cn2)nnc1[C@@H]1CCO[C@@H]1C` (single isomer, unassigned) [Example 118.0, (2S,3R)-3-(5-chloropyrimidin-2-yl)-N-(4-(2,6-dimethoxyphenyl)-5-((2R,3S)-2-methyltetrahydrofuran-3-yl)-4H-1,2,4-triazol-3-yl)butane-2-sulfonamide or (2S,3R)-3-(5-chloropyrimidin-2-yl)-N-(4-(2,6-dimethoxyphenyl)-5-((2S,3R)-2-methyltetrahydrofuran-3-yl)-4H-1,2,4-triazol-3-yl)butane-2-sulfonamide], the EC50 came out at 270 nM.

Take `COc1cccc(OC)c1-n1c(NS(=O)(=O)[C@@H](C)[C@H](C)c2ncc(Cl)cn2)nnc1[C@@H]1CCO[C@@H]1C` (single isomer, unassigned) [Example 119.0, (2S,3R)-3-(5-chloropyrimidin-2-yl)-N-(4-(2,6-dimethoxyphenyl)-5-((2R,3S)-2-methyltetrahydrofuran-3-yl)-4H-1,2,4-triazol-3-yl)butane-2-sulfonamide or (2S,3R)-3-(5-chloropyrimidin-2-yl)-N-(4-(2,6-dimethoxyphenyl)-5-((2S,3R)-2-methyltetrahydrofuran-3-yl)-4H-1,2,4-triazol-3-yl)butane-2-sulfonamide]: the EC50 worked out at 160 nM.
